Measured values taken from US20260207551A1, “PHOSPHOGLICERATE DEHYDROGENASE INHIBITORS FOR THE TREATMENT OF FIBROSIS” (CHIESI FARMACEUTICI S.P.A., priority 2022, published 2026).
Where two headings read alike, the source gives them in different places.

Assays:
collagen I (Col-I) = test: TGF-b induced Collagen I expression in NHLFs (Western blot); type: cell-based, Human; details: NHLF
From the text: The antifibrotic activity of compounds of the present invention has been monitored measuring the expression of fibrotic mediators, collagen I (Col-I) and alpha smooth muscle actin (α-SMA) after treatment in lung cells with TGF-β in comparison with Nintedanib (see Frank Hilberg et al, Cancer Res 2008 Jun. 15; 68(12):4774-82), and allosteric inhibitor NCT-503 (see Hamanaka et al., Am J Respir Cell Mol Biol. 2018 May; 58(5):585-593).
Human normal lung fibroblasts (NHLFs) were purchased from Lonza (Basel, Switzerland). NHFLs were cultured in Eagle's Minimum Essential medium (EMEM) w/o serine and glycine, supplemented with 10% Fetal Bovine Serum (FBS), antibiotics (50 U/ml penicillin and 0.05 mg/ml streptomycin) and 2 mM L-glutamine, in an atmosphere of 95% air and 5% CO2 at 37° C. NHLFs cultures were used between passage 1 and 9. Before all the experiments, cells were incubated overnight in serum-free medium.
NHLFs were seeded in 12-well plates at cultured until 70% of confluency. To examine the expression of fibrotic markers, cells were treated with different concentrations of Compounds and NCT-503 in EMEM medium for 1 h followed by stimulation with TGF-β for 48 h at 37° C., 5% CO2. […] Detection and quantification were performed with Odyssey imaging system (Li-cor) using GAPDH as loading control.

αSMA = test: Phenotypic assay: high content aSMA staining in NHLF cells; type: cell-based, Human; details: NHLF, 72 h incubation
Protocol: NHLF cells (Lonza #CC2512) were seeded as 2000 cells/well in 384-well plates in MEM medium w/o serine and glycine (Sigma #M2279)+1% pen/strep+5 mM L-glutamine +10% FBS and incubated overnight at 37° C., 5% CO2.
The next day, cells were washed with PBS and starvation MEM medium w/o serine and glycine (0% FBS) was added and cells were incubated overnight at 37° C., 5% CO2. The day after, cells were pre-incubated with compounds or vehicle (0.3% DMSO) for 1 h. Compounds were tested at 9 consecutive 3-fold dilutions starting from 30 μM. Each compound was tested in duplicate. Cells were further incubated for 72 h at 37° C., 5% CO2, 95% humidity. After 72 h of incubation, αSMA expression was quantified using immunostaining: • Fixation in 4% paraformaldehyde, • Blocking with 3% BSA, 2% FBS, 0.2% Triton-X in PBS, • Primary ab. anti-αSMA (AbCam #ab7817) diluted 500× in blocking buffer • Anti-mouse secondary ab. AF488 (ThermoFisher #A11029) • % of αSMA positive cells was determined by High Content Imaging (Molecular Device), data analysis was performed using MetaXpress software (Molecular Devices) and % of αSMA positive was further used to calculate % of inhibition for tested compounds. Total cell number was determined by Hoechst staining and % of viability over TGFβ stimulated controls was calculated.

[1] = Plasma and tissue exposure in PK/PD model; type: in vivo, mouse male (C57BL/6J); details: male, C57BL/6J, mouse, 300 mg/kg, 1 h, 6.5 h and 24.5 h
Protocol: Animals were fasted overnight before treatment. Following 0.5 h from administration of either Compound 19 at dose of 300 mg/kg or vehicle (0.5% Tween 80, 0.5% Methylcellulose in H2O), ^13C6-glucose was administered by oral gavage (2 g/kg, Merck Life Science Srl). Blood, lung, and brain samples were collected at 1 h, 6.5 h and 24.5 h after treatment with Compound 19 or vehicle.
The tissue concentration of ^13C3-serine was determined by a liquid chromatography-tandem mass spectrometry (LC/MS/MS) assay. GraphPad Prism (version 8.1.2) was used for drawing graphs and for statistical analysis. Plasma or tissue homogenate samples (tissues were homogenized with a water/acetonitrile 50/50 mixture) were extracted with 3 volumes of acetonitrile. Supernanatant was injected into HPLC system (Agilent 1260 Quaternary Pump equipped with an Agilent 1200 High Performance Autosampler SL; Agilent), using a Kinetex EVO C18 analytical column (100 A, 50×2.1 mm, 2.6 μm; Phenomenex) for the analysis of Compound 19 or an InfinityLab Poroshell 120 Hilic-Z (50×2.1 mm 2.7 μm; Agilent) for the analysis of ^13C3-serine. […]
Mass spectrometric analysis was performed on a linear ion trap triple quadrupole mass spectrometer (4000 Q TRAP; AB SCIEX) equipped with a turbo spray ion source; mass spectrometer was operated in positive ion mode and quantification was achieved by multiple reaction monitoring (MRM) mode. […]

[2] = system: bleomycin-induced pulmonary fibrosis; test: Bleomycin-induced pulmonary fibrosis in male mice (Example 5)
Protocol: Male C57BL6/J mice (7-8 weeks old) were purchased from the Envigo RMS (San Pietro al Natisone (UD), Italy). All mice were maintained under pathogen-free conditions and were provided food and water ad libitum.
Lung injury was induced by double oropharyngeal instillation of Bleomycin hydrochloride (BLM, BAXTER) at day 0 and day 4 at the doses of 0.02 U/mouse in 50 μl of saline solution (0.9%). Control animals received double oropharyngeal instillation of 50 μl of saline solution.
Compound 19 was orally administered twice daily, starting on day 7 after the first oropharyngeal administration of bleomycin at the two doses of 400 and 600 mg/kg/day, 10 ml/kg, dissolved in 0.5% Tween 80, 0.5% Methylcellulose in H2O and treatment lasted for two weeks.
A group of animals was treated with Nintedanib esylate salt, at the dose of 60 mg/kg/day, 10 ml/kg, once daily, to compare the efficacy of the test compounds with an FDA approved drug for the treatment of IPF patients. Control mice were given vehicle-only over the same time intervals. Weight of all animals has been assessed twice a week starting from day 0 until day 21.
On days 21, mice were anesthetized by intraperitoneal injection of thiopental (200 mg/kg/10 ml; pentothal sodium, MSD Animal Health Srl). Blood was withdrawn by cardiac puncture and collected in heparine tubes. Plasma was obtained after centrifugation of blood at 10,000 g for 10 min. Lungs were lavage with saline solution through the heart, formalin fixed and paraffin embedded, and sections were stained with Masson's Trichrome to evaluate the grade and severity of fibrosis and collagen deposition.
Masson's Trichrome stained slides were also scanned with NanoZoomer S60 (Hamamatsu Photonics K.K., Shizuoka, Japan) and acquired into the Visiopharm Integrator System (VIS; version 2017.2.4.3387) for a quantification of pulmonary fibrosis by automated analysis with the support of a VIS Analysis Protocol Package (APP). The present APP has been designed to identify and then quantify the fibrotic tissue, detecting accumulation of altered connective tissue, excess of collagen deposition and cellular density.
To quantify lung protein content and the levels of specific proteins as markers of fibrosis and collagen deposition, lungs from subgroups of animals were weighted, homogenized in Phosphate buffer solution (PBS) and proteins of interest were quantified by immunometric or colorimetric assays. Hydroxyproline content was determined using the Hydroxyproline Colorimetric Assay Kit (Sigma MAK008, USA) according to the manufacturer's protocol. WISP-1, CollagenI, pro-CollagenI and Elastin were determined by Elisa kits. Protein quantification was performed using DC Protein Assay (Bio-Rad Laboratories, Italy). Plasma serine levels were measured using the DL-Serine Assay Kit (Abcam, Cambridge, MA).

CC(C)C(C(=O)O)c1ccc(C2(NC(=O)c3cc4c(Cl)c(Cl)ccc4n3C)CCOC2)cc1 (racemic) [Compound 19, (±)-2-(4-(3-(4,5-Dichloro-1-methyl-1H-indole-2-carboxamido)tetrahydro-furan-3-yl)phenyl)-3-methylbutanoic acid]
IC50 (collagen I (Col-I); Homo sapiens, TGF-β 48 h, confidence interval in brackets, read-out: TGF-b induced Collagen I (pIC50-C.I.) (converted)): 31.6 nM
FMT induced by TGF-β, Collagen protein expression (FIG. 1) (collagen I (Col-I)): decrease of Collagen protein expression
aSMA pIC50 (αSMA): 5.9
Kp ([1]; brain / plasma, read-out: mean brain/plasma ratio): 0.01
Kp ([1]; lung / plasma, read-out: mean lung/plasma ratio): 0.4
circulating serine levels in plasma ([2]; 400 and 600 mg/kg/day): significant reduction at both doses
reduction of lung/body weight ([2]; Compound 19 highest dose (600 mg/kg/day), Nintedanib esylate 60 mg/kg/day, not significant): −31%
body weight during 2-weeks of treatment ([2]; compared to BLM/Vehicle treated group): did not lose additional weight
Ashcroft score (FIG. 11A) ([2]; day 21): reduced
collagen content (automatic collagen deposition quantification, FIG. 13) ([2]; day 21): reached statistical significance with the highest dose
frequency of Ashcroft score classes (FIG. 11B) ([2]; day 21): reduced the frequency of the most severe scores of fibrosis
reduction of tissue area occupied by fibrotic lesions (automated analysis) ([2]; day 21): ~25%
severity of fibrosis (automated analysis, FIG. 12) ([2]; day 21): significant reduction of severity of fibrosis
deaths during treatment ([2]; highest tested dose (600 mg/kg/day), two animals died in BLM/Vehicle group): only one animal died
lung levels of Hydroxyproline, Collagen I and WISP-1 ([2]; lung homogenates): significantly reduced
